Key:
[1] = J. Agr. Food. Chem. 2007, 55, 9634-9645; cited from earlier work
[2] = Skim milk evaluation of creamyness/mouthfeel enhancement; details: 10 ppm in skim milk, compared to base without compound
Description: Skim milk was used as a base to evaluate the creamyness/mouthfeel enhancement properties of the compounds. Samples with compound were compared to the base without compound added.

[3] = Kefir evaluation of creamyness/mouthfeel enhancement; details: compared to base without compound
Description: A commercial Kefir drink was used as a base to evaluate the creamyness/mouthfeel enhancement properties of the compounds. Samples with compound were compared to the base without compound added.

[4] = Sucralose evaluation of bitter masking; details: compared to base without compound
Experimental: Compounds were prepared in a sucralose base containing 80 ppm sucralose in water. Compounds were calculated in the base and compared to the base without may compound added.
A solution containing 80 ppm sucralose in water was used as a base to evaluate the bitter masking properties of the compounds. Samples with compound were compared to the base without compound added.

[5] = Rebaudioside A evaluation (taste descriptors); details: compared to base without compound
Experimental: A tasting base was prepared with 300 ppm Rebaudioside A in ater. Compounds were added to the base in the concentrations indicated in the table and compared to the base without compound added.

[6] = Red Bull drink evaluation of masking; details: compared to base without compound
Experimental: A commercial Red Bull™ Energy drink was used as a base to evaluate the masking properties of the compounds. Compounds were added to the base in the concentrations indicated in the table and compared to the base without compound added.

[7] = Low fat milk evaluation of creamyness/mouthfeel enhancement; details: 4 ppm in low fat milk (1.5-2% fat), compared to base without compound
Description: Low fat milk (1.5-2% fat) was used as a base to evaluate the creamyness/mouthfeel enhancement properties of the compounds. Samples with compound were compared to the base without compound added.

[8] = Sweetened yogurt evaluation of creamyness/mouthfeel enhancement; details: 10 ppm in yogurt with 5% sucrose and 0.03% creamy mouthfeel flavor, compared to base without compound
Description: Sweetened yogurt with flavor was used as a base to evaluate the creamyness/mouthfeel enhancement properties of the compounds. The yogurt base was sweetened with 5% sucrose and 0.03% creamy mouthfeel flavor (Givaudan 97584209). Samples with compound were compared to the sweetened base without compound added.

[9] = 2 ppm in commercial Kefir drink
[10] = 5 ppm in commercial Kefir drink
[11] = 2 ppm in 80 ppm sucralose in water
[12] = 5 ppm in 80 ppm sucralose in water
[13] = 10 ppm in 80 ppm sucralose in water
[14] = 2 ppm in 300 ppm Rebaudioside A in water
[15] = 5 ppm in 300 ppm Rebaudioside A in water
[16] = 10 ppm in 300 ppm Rebaudioside A in water
[17] = 10 ppm in Red Bull Energy drink

SMILES | effect on cream flavour / creaminess [1] | Taste Description [2] | Taste Description [3, 9] | Taste Description [3, 10] | Taste Description [4, 11] | Taste Description [4, 12] | Taste Description [4, 13] | Taste Description [5, 14] | Taste Description [5, 15] | Taste Description [5, 16] | Taste Description ([6]; 5 ppm in Red Bull Energy drink) | Taste Description [6, 17] | Taste Description [7] | Taste Description [8]
CCCCCCCCCC1CCCC(=O)O1 (stereo not drawn) [δ-tetradecalactone] | able to enhance the retronasal cream flavour |  |  |  |  |  |  |  |  |  |  |  |  | 
CCC(O)CCCC1CCC(=O)O1 (stereo not drawn) [8-hydroxy gamma decalactone, 5-(4-hydroxyhexyl)dihydrofuran-2(3H)-one] |  | Some mouthfeel effect | Much creamier, fattier, fuller, | more mid body, creamier | Floral, little masking, waxy, | Some effect | Masks sweetness, floral, | Masks lots of bitter, less | Some masking | High offnote, masks more | Good masking. less sweet | Offnote, similar to control |  | 
CC(O)CCCCCCCC(=O)O (stereo not drawn) [9-Hydroxy decanoic acid, 9-hydroxydecanoic Acid] |  | Some mouthfeel effect | Very creamy, slight mouthfeel, more | Very creamy, mouth-coating, smooth, | Less bitter. lingering, more | Backend masks lingering. | Nice mouthfeel, full upfront | Less bitter, lingering, more | Less bitter, lingernig, waxy, | Offtaste, not much |  | Masks better than control | Slightly more mouthfeel | Lingering waxy profile, fattier.
CC(O)CCCCC1CCC(=O)O1 (stereo not drawn) [9-hydroxy gamma decalactone, 5-(5-hydroxyhexyl)dihydrofuran-2(3H)-one] |  | No mouthfeel | More creamy than control, upfront | More dairy note, more mid body. | Floral, little masking, waxy, | Some effect | High offnote. masks | Slight fatty note at end. | Not much | High offnote, changes | Less sweetness, strong linger | Good masking, offnote |  | 
CCC(O)CCCCCCC(=O)O (stereo not drawn) [8-Hydroxy decanoic acid, 8-hydroxydecanoic Acid] |  | Some mouthfeel effect |  | Creamy. fatty mouthfeel. good | Less lingering, more | Velvety mouthfeel. very full. | No masking, adds | Less bitter, less bitter | Less bitter, less bitter | Helps overall especially |  |  | Slight mouthfeel | Lingering waxy profile, fattier.

Source: US9480280B2, “Taste modifiers” (Givaudan S.A., priority 2012, dated 2016)
